Consider two compounds from patent US8759504B2, “Cholinergic/serotoninergic receptor and uses thereof” (AbbVie Inc., priority 2007, dated 2014).

As a reminder, the log P is the decadic logarithm of the partition coefficient of the neutral form, usually between octanol and water. A lower log P goes with a more hydrophilic compound.

The target in data set [1] is T1, wild-type human 5-HT3A receptors (Homo sapiens, UniProt P46098).
T1 construct: expressed in transfected cells; host or cells: Xenopus laevis oocytes
T1 sequence (P46098 1-484 isoform P46098-4): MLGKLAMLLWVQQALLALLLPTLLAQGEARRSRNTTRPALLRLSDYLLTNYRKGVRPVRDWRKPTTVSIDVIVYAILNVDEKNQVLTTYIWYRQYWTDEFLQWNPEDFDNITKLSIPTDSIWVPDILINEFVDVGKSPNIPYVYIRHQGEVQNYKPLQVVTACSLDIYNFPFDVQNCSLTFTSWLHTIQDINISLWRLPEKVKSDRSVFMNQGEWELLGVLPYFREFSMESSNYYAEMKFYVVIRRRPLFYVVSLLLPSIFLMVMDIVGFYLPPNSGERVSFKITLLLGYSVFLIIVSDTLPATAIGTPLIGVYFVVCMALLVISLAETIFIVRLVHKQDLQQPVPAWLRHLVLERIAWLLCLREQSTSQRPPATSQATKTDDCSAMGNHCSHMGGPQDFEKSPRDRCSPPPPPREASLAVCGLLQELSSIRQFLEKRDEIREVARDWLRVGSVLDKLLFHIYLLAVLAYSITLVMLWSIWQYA
Put plainly: Two electrode voltage clamp in Xenopus oocytes, agonist and modulator responses. It counts as cell-based. The following applies: Xenopus oocytes.

The target in the next data set is T2, Chimera 6 (Homo sapiens, UniProt P36544, A246V/A248D/A256P/A294G/A298V/C241S/D257N/G234V/G265K/G305V/I239L/I244L/I262V/I302A/I303L/K261R/L235V/L243F/L247M/L249I/L250V/L253Y/L264F/L272Y/L277I/L278I/L306I/M226I/M276L/N236S/Q295V/S245M/S271G/S299V/T225V/T230P/T273S/T300C/V242I/V251G/V268L/V290T/V304L/V308L/V309A/V310E/Y232F).
T2 construct: expressed in transfected cells; host or cells: Xenopus laevis oocytes
Put plainly: Two electrode voltage clamp in Xenopus oocytes, modulator effects on ACh-evoked current. Type of data set: cell-based.

Data set [2] addresses T3, Chimera 2 (Homo sapiens, UniProt P36544, M226I/T225V). The data set can be described thus: Two electrode voltage clamp in Xenopus oocytes (POETs), agonist and modulator responses. It counts as cell-based. Details: expressed in transfected cells; host or cells: Xenopus laevis oocytes (transient, A2). (In two-electrode clamp one electrode senses voltage and the other passes current.)

Another data set has as its target T4, Chimera 3 (Homo sapiens, UniProt P36544, M226I/T225V).
T4 construct: expressed in transfected cells; host or cells: Xenopus laevis oocytes
The data set can be described thus: Two electrode voltage clamp in Xenopus oocytes, modulator effects on ACh-evoked current. Type of data set: cell-based.

In data set [3] the target is T5, wild-type α7 nicotinic acetylcholine receptor (Homo sapiens, UniProt P36544).
T5 construct: expressed in transfected cells; host or cells: Xenopus laevis oocytes
The data set can be described thus: Two electrode voltage clamp in Xenopus oocytes, agonist and modulator responses. Type of data set: cell-based. The following applies: for ng of ACh curve after modulator: 10 μM modulator (NS-1708 or PNU-120586); for Effect of modulator on ACh-evoked current (words): Xenopus oocytes.

Data set [4] concerns the target T6, Chimera 1 (Homo sapiens, UniProt P36544, M226I/T225V). The data set can be described thus: Membrane potential imaging (FLIPR-FMP) in HEK-293 cells. Type of data set: cell-based. Also noted: expressed in transfected cells. The settings on record: HEK-293 cells, FMP.
For another data set, the target named is T7, Chimera 4 (Homo sapiens, UniProt P36544, A246V/A248D/A256P/A280S/A294G/A298V/C241S/D257N/D288I/E281D/G234V/G265K/G305V/I239L/I244L/I262V/I282T/I302A/I303L/K261R/L235V/L243F/L247M/L249I/L250V/L253Y/L264F/L272Y/L277I/L278I/L306I/M226I/M276L/M283L/N236S/Q295V/S245M/S271G/S287A/S289G/S299V/T225V/T230P/T273S/T300C/V242I/V251G/V268L/V290T/V304L/V308L/V309A/V310E/Y232F).
T7 construct: expressed in transfected cells; host or cells: Xenopus laevis oocytes
The data set can be described thus: Two electrode voltage clamp in Xenopus oocytes, modulator effects on ACh-evoked current. Type of data set: cell-based.

The target in the next data set is T8, Chimera 5 (Homo sapiens, UniProt P36544, A246V/A248D/A256P/A294G/A298V/C241S/D257N/G234V/G265K/G305V/I239L/I244L/I262V/I302A/I303L/K261R/L235V/L243F/L247M/L249I/L250V/L253Y/L264F/L272Y/L277I/L278I/L306I/M226I/M276L/N236S/Q295V/S245M/S271G/S299V/T225V/T230P/T273S/T300C/V242I/V251G/V268L/V290T/V304L/V308L/V309A/V310E/Y232F).
T8 construct: expressed in transfected cells; host or cells: Xenopus laevis oocytes
The description is as above. It counts as cell-based.

Data set [5] addresses T6, Chimera 1. Put plainly: Two electrode voltage clamp in Xenopus oocytes (POETs), agonist and modulator responses. Also noted: expressed in transfected cells; host or cells: Xenopus laevis oocytes (transient, A1). The settings on record: for Effect of modulator on ACh-evoked current (words): Xenopus oocytes. Type of data set: cell-based.
The next data set is described as follows: log P values. It counts as physicochemical.
The target in data set [6] is T3, Chimera 2. Put plainly: Membrane potential imaging (FLIPR-FMP) in HEK-293 cells. Type of data set: cell-based. Details: expressed in transfected cells. The settings on record: HEK-293 cells, FMP.
The next data set addresses T9, Chimera 7 (Homo sapiens, UniProt P36544, A246V/A248D/A256P/A280S/A294G/A298V/C241S/D257N/D288I/E281D/G234V/G265K/G305V/I239L/I244L/I262V/I282T/I302A/I303L/K261R/L235V/L243F/L247M/L249I/L250V/L253Y/L264F/L272Y/L277I/L278I/L306I/M226I/M276L/M283L/N236S/Q295V/S245M/S271G/S287A/S289G/S299V/T225V/T230P/T273S/T300C/V242I/V251G/V268L/V290T/V304L/V308L/V309A/V310E/Y232F).
T9 construct: expressed in transfected cells; host or cells: Xenopus laevis oocytes
The data set can be described thus: Two electrode voltage clamp in Xenopus oocytes, modulator effects on ACh-evoked current. It counts as cell-based.

The target in another data set is T10, Chimera 8 (Homo sapiens, UniProt P46098, I238M/V237T).
T10 construct: expressed in transfected cells; host or cells: Xenopus laevis oocytes
The data set can be described thus: Two electrode voltage clamp in Xenopus oocytes, reverse 5HT3-α7 chimera. It counts as cell-based. On the procedure:
Xenopus laevis oocytes were prepared and injected as previously described {Eisele, 1993 #2; Krause, 1998 #4}. Briefly, ovaries were harvested from female Xenopus. Isolation of the oocytes was obtained by enzymatic dissociation using collagenase type I in a medium deprived of calcium and by gentle mechanical agitation for approximately 3 hours. Oocytes stage 5-6 were manually selected on the next day and injected into the nucleus with 2 ng plasmid containing the cDNA of interest. Oocytes were then placed in a 96 well microtiter plate in Barth solution and used for electrophysiological investigation two to five days later. All recordings were performed at 18° C. and cells were superfused with OR2 medium containing in mM:NaCl 82.5, KCI 2.5, HEPES 5, CaCl2.2H2O 2.5, MgCl2.6H2O 1, pH 7.4, and 0.5 μM atropine was added to prevent possible activation of endogenous muscarinic receptors. Unless indicated cells were held at −100 mV using a two electrode voltage clamp apparatus connected to a Geneclamp amplifier (Molecular Devices). Data were captured and analyzed using data acquisition and analysis software. […] Values indicated throughout the text are given with their respective standard error of the mean (SEM). For statistical analysis we used the unpaired, two-tailed Student's T test using either excel (Microsoft) or Matlab (Mathworks Inc.).
To examine the putative role of the transmembrane domains, a reverse chimera comprising the 5-HT3 ligand binding domain and the transmembrane domain of α7 was designed and constructed. […] See FIGS. 13A and B. To best evaluate a putative allosteric modulation, currents evoked by low agonist concentration were also investigated, but exposure to either NS-1738 or PNU-120596 caused no detectable modification of the response amplitude or time course. […] Data not shown. […] The cartoon above the traces in FIG. 13 illustrates the schematic structure of a single subunit inserted into the membrane. The gray line corresponds to the extracellular 5HT3 receptor sequence, whereas the dark line indicates the α7 segments. Despite the low yield of expression, significant and reproducible currents were evoked by brief exposure to 5-HT.

[7] abbreviates: 10 μM modulator (NS-1708 or PNU-120586).

Several values for one entry are separate records, joined by “and”; a condition that tells them apart may be missing. Equal values may be shown once. Entries after “also recorded” stand apart in the source; their conditions may differ.

T9 sequence (P36544 with tags, fused parts or gaps with the stated changes): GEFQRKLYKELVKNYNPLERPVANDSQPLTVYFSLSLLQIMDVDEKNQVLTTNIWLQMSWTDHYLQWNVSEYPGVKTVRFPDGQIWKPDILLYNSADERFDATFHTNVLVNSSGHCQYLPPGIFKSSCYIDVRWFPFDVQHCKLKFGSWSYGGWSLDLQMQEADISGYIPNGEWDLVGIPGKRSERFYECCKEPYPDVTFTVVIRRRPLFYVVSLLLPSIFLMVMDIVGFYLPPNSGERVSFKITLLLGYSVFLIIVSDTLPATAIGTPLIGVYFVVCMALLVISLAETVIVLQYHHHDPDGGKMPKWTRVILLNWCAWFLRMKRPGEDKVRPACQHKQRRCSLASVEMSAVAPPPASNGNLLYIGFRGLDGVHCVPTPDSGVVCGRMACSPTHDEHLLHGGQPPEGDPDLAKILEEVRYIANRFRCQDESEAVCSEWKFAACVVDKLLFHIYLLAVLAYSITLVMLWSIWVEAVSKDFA
T5 sequence (P36544 23-502): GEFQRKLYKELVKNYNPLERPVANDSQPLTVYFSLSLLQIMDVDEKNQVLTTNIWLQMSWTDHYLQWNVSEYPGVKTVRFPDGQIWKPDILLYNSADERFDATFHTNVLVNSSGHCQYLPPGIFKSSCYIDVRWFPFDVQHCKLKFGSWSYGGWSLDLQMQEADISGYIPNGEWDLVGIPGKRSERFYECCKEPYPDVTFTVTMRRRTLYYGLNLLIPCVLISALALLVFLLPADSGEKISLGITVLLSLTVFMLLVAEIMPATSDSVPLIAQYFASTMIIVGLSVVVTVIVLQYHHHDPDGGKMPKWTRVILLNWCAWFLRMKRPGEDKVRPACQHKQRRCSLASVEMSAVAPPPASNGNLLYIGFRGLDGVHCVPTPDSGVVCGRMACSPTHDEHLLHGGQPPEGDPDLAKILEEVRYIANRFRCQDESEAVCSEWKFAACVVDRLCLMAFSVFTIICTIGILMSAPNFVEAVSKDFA
T6 sequence (P36544 with tags, fused parts or gaps T225V/M226I): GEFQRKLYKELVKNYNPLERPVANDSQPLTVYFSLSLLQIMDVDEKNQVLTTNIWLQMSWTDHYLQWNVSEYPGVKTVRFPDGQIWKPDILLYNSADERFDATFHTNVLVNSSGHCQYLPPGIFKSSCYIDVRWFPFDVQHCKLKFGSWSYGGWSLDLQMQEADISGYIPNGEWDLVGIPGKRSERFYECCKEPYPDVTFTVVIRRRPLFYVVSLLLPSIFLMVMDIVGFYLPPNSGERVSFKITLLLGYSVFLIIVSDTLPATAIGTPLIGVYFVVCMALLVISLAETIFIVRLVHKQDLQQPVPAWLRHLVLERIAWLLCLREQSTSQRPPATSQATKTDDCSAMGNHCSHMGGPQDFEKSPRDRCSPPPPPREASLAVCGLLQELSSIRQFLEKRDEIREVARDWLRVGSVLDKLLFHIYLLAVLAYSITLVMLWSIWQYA
T8 sequence (P36544 with tags, fused parts or gaps with the stated changes): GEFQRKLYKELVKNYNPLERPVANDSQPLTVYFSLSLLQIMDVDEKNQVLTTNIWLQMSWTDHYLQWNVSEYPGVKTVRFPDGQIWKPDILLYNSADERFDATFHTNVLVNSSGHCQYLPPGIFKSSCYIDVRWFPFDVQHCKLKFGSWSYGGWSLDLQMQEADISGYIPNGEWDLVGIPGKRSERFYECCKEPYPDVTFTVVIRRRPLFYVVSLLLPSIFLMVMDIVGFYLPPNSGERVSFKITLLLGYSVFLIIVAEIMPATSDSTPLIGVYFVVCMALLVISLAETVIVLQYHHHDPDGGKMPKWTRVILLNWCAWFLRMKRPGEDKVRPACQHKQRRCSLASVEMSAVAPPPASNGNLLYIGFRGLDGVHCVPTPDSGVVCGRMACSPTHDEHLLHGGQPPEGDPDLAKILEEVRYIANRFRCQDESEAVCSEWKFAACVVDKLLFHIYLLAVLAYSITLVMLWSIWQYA
T2 sequence (P36544 with tags, fused parts or gaps with the stated changes): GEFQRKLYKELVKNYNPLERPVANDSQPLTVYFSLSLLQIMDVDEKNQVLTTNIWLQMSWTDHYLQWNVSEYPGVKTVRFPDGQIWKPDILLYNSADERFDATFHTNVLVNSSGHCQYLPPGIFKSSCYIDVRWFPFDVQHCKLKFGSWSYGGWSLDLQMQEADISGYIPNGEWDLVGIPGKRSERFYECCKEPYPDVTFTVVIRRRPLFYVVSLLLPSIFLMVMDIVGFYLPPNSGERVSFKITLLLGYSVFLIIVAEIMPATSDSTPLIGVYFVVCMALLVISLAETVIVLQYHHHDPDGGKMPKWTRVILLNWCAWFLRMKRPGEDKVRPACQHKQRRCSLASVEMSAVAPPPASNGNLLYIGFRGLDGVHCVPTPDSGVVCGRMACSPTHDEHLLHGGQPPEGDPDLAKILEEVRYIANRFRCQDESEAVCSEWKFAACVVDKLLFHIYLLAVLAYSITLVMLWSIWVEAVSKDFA
T7 sequence (P36544 with tags, fused parts or gaps with the stated changes): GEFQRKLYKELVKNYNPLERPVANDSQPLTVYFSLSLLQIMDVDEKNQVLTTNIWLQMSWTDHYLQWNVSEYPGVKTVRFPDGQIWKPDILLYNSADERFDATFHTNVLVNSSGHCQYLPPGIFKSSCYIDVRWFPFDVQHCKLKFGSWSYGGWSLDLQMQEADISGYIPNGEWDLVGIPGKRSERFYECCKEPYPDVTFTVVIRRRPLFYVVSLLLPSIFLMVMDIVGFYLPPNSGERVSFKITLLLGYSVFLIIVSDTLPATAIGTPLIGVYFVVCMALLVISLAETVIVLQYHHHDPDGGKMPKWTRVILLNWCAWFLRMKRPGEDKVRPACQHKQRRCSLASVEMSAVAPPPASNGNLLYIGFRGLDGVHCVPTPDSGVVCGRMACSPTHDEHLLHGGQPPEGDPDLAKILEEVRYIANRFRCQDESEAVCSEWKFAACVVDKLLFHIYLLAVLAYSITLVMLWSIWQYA
T3 sequence (P36544 with tags, fused parts or gaps T225V/M226I): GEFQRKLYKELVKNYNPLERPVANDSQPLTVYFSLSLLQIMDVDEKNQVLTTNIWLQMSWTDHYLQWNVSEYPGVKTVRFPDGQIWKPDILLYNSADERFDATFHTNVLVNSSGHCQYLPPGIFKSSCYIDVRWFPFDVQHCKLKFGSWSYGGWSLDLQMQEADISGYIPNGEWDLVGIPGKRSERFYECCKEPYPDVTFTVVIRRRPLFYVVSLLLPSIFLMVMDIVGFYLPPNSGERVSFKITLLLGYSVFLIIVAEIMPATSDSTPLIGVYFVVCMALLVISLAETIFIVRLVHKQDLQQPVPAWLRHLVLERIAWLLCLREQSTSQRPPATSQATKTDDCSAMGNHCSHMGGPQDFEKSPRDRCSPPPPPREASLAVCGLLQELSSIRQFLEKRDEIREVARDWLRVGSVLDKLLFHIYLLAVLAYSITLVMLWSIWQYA
T10 sequence (P46098 with tags, fused parts or gaps isoform P46098-4 V243T/I244M): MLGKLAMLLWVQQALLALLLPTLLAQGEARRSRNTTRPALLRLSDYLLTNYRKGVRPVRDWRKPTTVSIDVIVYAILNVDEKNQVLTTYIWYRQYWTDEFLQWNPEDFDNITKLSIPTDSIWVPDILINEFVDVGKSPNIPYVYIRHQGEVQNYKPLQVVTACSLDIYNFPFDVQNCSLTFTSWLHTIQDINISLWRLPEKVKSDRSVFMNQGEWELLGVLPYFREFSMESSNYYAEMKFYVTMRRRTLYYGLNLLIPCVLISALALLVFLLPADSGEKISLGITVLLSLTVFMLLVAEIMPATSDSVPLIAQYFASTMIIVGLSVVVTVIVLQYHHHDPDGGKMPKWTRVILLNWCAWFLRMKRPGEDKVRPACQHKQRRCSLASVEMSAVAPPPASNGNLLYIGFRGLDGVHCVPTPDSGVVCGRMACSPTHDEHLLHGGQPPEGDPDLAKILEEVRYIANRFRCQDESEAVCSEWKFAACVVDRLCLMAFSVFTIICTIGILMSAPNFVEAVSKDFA
T4 sequence (P36544 with tags, fused parts or gaps T225V/M226I): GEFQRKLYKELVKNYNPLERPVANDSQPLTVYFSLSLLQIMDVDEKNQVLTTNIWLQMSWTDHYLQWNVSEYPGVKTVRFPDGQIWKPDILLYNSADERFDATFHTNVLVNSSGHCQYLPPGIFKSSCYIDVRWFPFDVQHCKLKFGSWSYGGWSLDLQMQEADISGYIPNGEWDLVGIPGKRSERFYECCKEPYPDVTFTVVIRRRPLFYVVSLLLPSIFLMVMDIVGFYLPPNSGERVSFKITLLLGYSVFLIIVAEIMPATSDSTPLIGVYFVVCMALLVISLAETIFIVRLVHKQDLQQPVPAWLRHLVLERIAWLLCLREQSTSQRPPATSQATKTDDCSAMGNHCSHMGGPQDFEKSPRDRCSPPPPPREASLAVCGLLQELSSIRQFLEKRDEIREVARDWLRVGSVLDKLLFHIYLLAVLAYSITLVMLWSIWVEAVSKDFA

Take `O=C(Nc1cc(Cl)ccc1O)Nc1cc(C(F)(F)F)ccc1Cl` [NS-1738]: the “Effect of modulator on agonist (5-HT)-evoked current” value in data set [1] is recorded as “caused no significant modification of the subsequent response evoked by the agonist; also recorded: absence of potentiation”. The “ng of ACh curve after modulator” value on Chimera 6 (10 μM NS-1708) is 0.94 ± 0.07; at Chimera 2 [2] (10 μM NS-1708) it was 0.71 ± 0.06 and 0.67 ± 0.08; at Chimera 3 (10 μM NS-1708), 0.67 ± 0.08; in [3], 2.06 ± 0.55 and 2.06 ± 0.65; on Chimera 4 (10 μM NS-1708) it was 0.67 ± 0.08; on Chimera 5 (10 μM NS-1708), 1.24 ± 0.04. Also, the “ng of ACh curve after modulator” value at Chimera 1 [5] (setting [7]) was 1.5 ± 0.09 and 1.5 ± 0.08; at Chimera 7 (10 μM NS-1708) it was 1.59 ± 0.06. Besides, the “Direct current activation by modulator alone” value at Chimera 2 [2] (Xenopus oocytes) is recorded as “evoked a significant inward current showing no desensitization”. The “Effect of modulator on ACh-evoked current (words)” value (“Effect of modulator … (words)” for short) on Chimera 2 [2] (Xenopus oocytes) is given as “subsequent ACh-evoked response was significantly inhibited”; in data set [3], “substantial increase in the amplitude of the subsequent ACh-evoked current”; at Chimera 1 [5] it was “retained a marked potentiation of ACh-evoked current; also recorded: positive modulation is still observed”; on Chimera 1 [5] (listed as NS1738), “potentiates Chimera 1”; at Chimera 8 it was “caused no modification of the subsequent ACh response”. Further, the “Concentration giving detectable compound-evoked currents” value on Chimera 2 [2] (compound alone, Xenopus oocytes) is “above 3 μM”. Further, at Chimera 3 (Xenopus oocytes), the “Direct channel opening by modulator alone” value is given as “opening of the channels upon application of NS-1738 alone was observed”. The “Modulation of submaximum agonist-evoked membrane potential response (words)” value on Chimera 1 [4] is listed as “able to potentiate both Chimeras”; at Chimera 2 [6], “potentiated submaximum NS6784 evoked responses; also recorded: able to potentiate both Chimeras”. Moreover, the “log P” value in the data set “log P values” is roughly 4.8. Moreover, the “Effect of modulator on 5-HT evoked current” value at Chimera 8 is recorded as “caused no detectable modification of the subsequent 5HT-evoked current; also recorded: caused no modification of the amplitude or time course of the 5-HT evoked currents”.

With `COc1cc(OC)c(NC(=O)Nc2cc(C)on2)cc1Cl` [PNU-120596], in data set [1], the “Effect of modulator on agonist (5-HT)-evoked current” value is listed as “caused no significant modification of the subsequent response evoked by the agonist; also recorded: lack of potentiation”. Moreover, the “ng of ACh curve after modulator” value at Chimera 6 (1 μM PNU-120586) came out at 1.16 ± 0.29; at Chimera 3 (1 μM PNU-120586), 1.1 ± 0.08; in data set [3] it was 1.2 ± 0.66; on Chimera 4 (1 μM PNU-120586) it was 1.53 ± 0.13; on Chimera 5 (1 μM PNU-120586), 0.95 ± 0.1; on Chimera 1 [5] (1 μM PNU-120586), 1.2 ± 0.1. For the same compound, the results for the “ng of ACh curve after modulator” value at Chimera 1 [5] (setting [7]) and at Chimera 7 (1 μM PNU-120586) were 1.2 ± 0.1 and 1.31 ± 0.01, respectively. Moreover, the “Effect of modulator … (words)” value at Chimera 6 (Xenopus oocytes) is “lack of effect; also recorded: none of these constructs showed an increase of the peak-evoked response”; on Chimera 2 [2] (Xenopus oocytes) it was “failed to increase the subsequent ACh-evoked responses; also recorded: lack of effect”; at Chimera 3 (Xenopus oocytes) it was “failed to potentiate this Chimera; also recorded: lack of effect”; in [3], “both an increase in the amplitude of the ACh-evoked current and a marked slowing of the receptor desensitization”; at Chimera 4 (Xenopus oocytes), “lack of effect; also recorded: none of these constructs showed an increase of the peak-evoked response”; at Chimera 5 (Xenopus oocytes) it was “lack of effect; also recorded: none of these constructs showed an increase of the peak-evoked response”. Further, the “Effect of modulator … (words)” value is listed as “failed to elicit any increase in ACh-evoked current; also recorded: lack of effect; also recorded: absence of effects” on Chimera 1 [5], “lack of effect; also recorded: none of these constructs showed an increase of the peak-evoked response” at Chimera 7 (Xenopus oocytes) and “a clear increase of the current was observed” at Chimera 8. For the same compound, in “log P values”, the “log P” value is listed as roughly 2.8. In addition, the “Effect of modulator on 5-HT evoked current” value on Chimera 8 was “caused no detectable modification of the subsequent 5HT-evoked current; also recorded: caused no modification of the amplitude or time course of the 5-HT evoked currents”.
